US20230027026A1, “FUSED PYRIMIDINE COMPOUNDS, COMPOSITIONS AND MEDICINAL APPLICATIONS THEREOF” (JUBILANT BIOSYS LIMITED, priority 2019, published 2023)
pEC50, pIC50: −log10 of the molar value.

Columns and labels:
[1] = target: EGFR (A767_dupASV) expressing Ba/F3 stable cell line (Homo sapiens, UniProt P00533, DUP767-769, cells depend on it); test: Cellular proliferation (Alamar Blue) assay, EGFR A767_dupASV Ba/F3; type: cell-based; settings: EGFR A767_dupASV Ba/F3, 72 hr, read-out: A767 IC50
Procedure, shortened: (§1)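 Ba/F3 lines (15,000 cells/well, RPMI with 10% FBS) expressing mutant EGFR or HER2, plus BT-474 cells, treated 72 h at 37 °C with compound at 10-0.0005 μM final, 3-fold dilutions. Viability by Alamar Blue after 3 h, fluorescence 540 nm excitation/590 nm emission.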

EGFR (T790M/L858R) = target: T1, EGFR (T790M/L858R) (Homo sapiens, UniProt P00533, L858R/T790M); test: EGFR L858R/T790M enzyme inhibition assay (HTRF); type: biochemical; settings: 5 μM ATP, 60 min, read-out: EGFR_L858R T790M_IC50_nM
T1 construct: GST; purchased Proqinase
Procedure, shortened: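 HTRF kinase assay with 2.5 nM GST-EGFR T790M/L858R, 0.5 μM biotinylated gastrin peptide and 5 μM ATP in HEPES pH 7.4 with Mg/Mn, 60 min at room temperature; compounds from 10 μM top. Phosphotyrosine detected by Eu anti-pTyr/SA-APC; IC50 from % inhibition.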

[2] = target: EGFR(D770_N771insSVD) expressing Ba/F3 stable cell line (Homo sapiens, UniProt P00533, DUP768-770, cells depend on it); test: Cellular proliferation (Alamar Blue) assay, EGFR D770_N771insSVD Ba/F3; type: cell-based; settings: EGFR D770_N771insSVD Ba/F3, 72 hr, read-out: D770 IC50
Procedure, shortened: as §1

[3] = target: HER2 (A775_G776insYVMA) expressing Ba/F3 stable cell line (Homo sapiens, UniProt P04626, DUP772-775, cells depend on it); test: Cellular proliferation (Alamar Blue) assay, HER2 YVMA Ba/F3; type: cell-based; settings: HER2 A775_G776insYVMA Ba/F3, 72 hr, read-out: YVMA IC50
Procedure, shortened: as §1

BT-474 cells = test: Cellular proliferation (Alamar Blue) assay, BT-474; type: cell-based; settings: Homo sapiens
Description: (§2) Example 3: Cellular Proliferation (Alamar Blue) Assays
(§3) • 1. EGFR(D770_N771insSVD) expressing Ba/F3 stable cell line • 2. EGFR (A767_dupASV) expressing Ba/F3 stable cell line • 3. A431 cells • 4. BTER2 (A775_G776insYVMA) expressing Ba/F3 stable cell line • 5. BTER2 (WT) expressing Ba/F3 stable cell line • 6. BT-474 cells
(§4) • 1. Seed cells at 5000 for A431 and 15,000 cells for Ba/F3 in 100 μL/well in complete media (for A431: DMEM with 10% FBS and for Ba/F3 cells: RPMI with 10% FBS) in 96-well tissue culture plate. Leave outer wells without cells for background measurements. Incubate at 37 degree Celsius in 5% CO2 humidified incubator for 16-18 hours. • 2. Add 0.025 ml of 5× concentration compound dilution or DMSO control. Final compound concentration range is 10-0.0005 μM prepared in 3-fold serial dilutions. Incubate for 72 hr at 37 degree Celsius in […] humidified incubator. • 3. Add 0.0125 mL Alamar Blue™ reagent to each well with multi-channel pipette and tap gently on each side of the plate to mix. Incubate for 3 hours at 37 degree Celsius in […] humidified incubator. • 4. Read plates on fluorescence reader (Tecan Spark Control, Device: Spark, Serial #: 1801006040) at 540 nm excitation, 590 nm emission wavelength. • 5. Data analysis was performed using XLfit 5.5.0.5.

A431 cells = test: Cellular proliferation (Alamar Blue) assay, A431; type: cell-based; settings: Homo sapiens, A-431; A431 cells, 72 hr, Alamar Blue; read-out: A431 IC50
Procedure, shortened: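 Following a 16–18 h pre-incubation, cells received compound or DMSO for 72 h at 37 °C across a 10–0.0005 μM final range. Proliferation was then scored by Alamar Blue fluorescence (540 nm excitation, 590 nm emission) after 3 h.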

[4] = system: H1975 cells (L858R_T790M mutant); test: H1975 proliferation assay; type: cell-based; settings: Homo sapiens, NCI-H1975; read-out: Proliferation_Assay H1975 cells-EC50_nM L858R_T790M_mutant
[5] = target: HER2 (WT) expressing Ba/F3 stable cell line (Homo sapiens, UniProt P04626); test: Cellular proliferation (Alamar Blue) assay, HER2 WT Ba/F3; type: cell-based; settings: HER2 WT Ba/F3, 72 hr, read-out: HER2 WT Ba/F3 IC50
Description: as §2, §3, §4

T1 sequence (P00533 25-1210 T790M/L858R): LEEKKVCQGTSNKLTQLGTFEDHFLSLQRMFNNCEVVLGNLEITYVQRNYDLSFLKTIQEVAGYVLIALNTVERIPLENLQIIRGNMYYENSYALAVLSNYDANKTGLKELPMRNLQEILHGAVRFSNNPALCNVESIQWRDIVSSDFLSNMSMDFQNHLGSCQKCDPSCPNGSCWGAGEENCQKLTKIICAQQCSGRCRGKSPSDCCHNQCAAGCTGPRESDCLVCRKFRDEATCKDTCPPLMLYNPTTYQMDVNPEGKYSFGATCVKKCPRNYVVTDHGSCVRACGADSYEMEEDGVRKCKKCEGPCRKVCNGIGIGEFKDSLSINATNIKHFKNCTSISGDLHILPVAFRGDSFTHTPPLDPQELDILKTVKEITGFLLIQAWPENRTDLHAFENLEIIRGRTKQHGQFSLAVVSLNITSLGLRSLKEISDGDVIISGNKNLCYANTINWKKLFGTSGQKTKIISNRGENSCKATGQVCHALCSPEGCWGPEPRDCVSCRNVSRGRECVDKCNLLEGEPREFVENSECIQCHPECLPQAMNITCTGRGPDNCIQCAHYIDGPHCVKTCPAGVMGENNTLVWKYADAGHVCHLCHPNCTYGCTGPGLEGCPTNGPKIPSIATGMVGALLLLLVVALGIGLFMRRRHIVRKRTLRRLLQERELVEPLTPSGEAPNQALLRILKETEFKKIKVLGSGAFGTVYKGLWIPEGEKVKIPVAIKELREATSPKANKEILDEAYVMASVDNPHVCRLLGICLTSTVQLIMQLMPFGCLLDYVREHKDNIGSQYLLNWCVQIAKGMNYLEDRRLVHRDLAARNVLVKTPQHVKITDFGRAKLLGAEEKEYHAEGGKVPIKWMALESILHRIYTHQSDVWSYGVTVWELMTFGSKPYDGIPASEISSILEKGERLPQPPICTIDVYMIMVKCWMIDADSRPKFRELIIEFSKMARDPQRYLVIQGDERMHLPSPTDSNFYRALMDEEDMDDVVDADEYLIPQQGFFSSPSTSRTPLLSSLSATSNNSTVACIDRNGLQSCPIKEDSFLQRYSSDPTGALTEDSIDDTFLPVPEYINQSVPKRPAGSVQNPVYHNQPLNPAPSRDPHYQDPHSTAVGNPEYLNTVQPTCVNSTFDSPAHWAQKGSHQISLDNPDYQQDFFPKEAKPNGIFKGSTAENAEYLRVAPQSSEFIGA
Chain of EGFR (A767_dupASV) expressing Ba/F3 stable cell line (P00533 with tags, fused parts or gaps DUP767-769): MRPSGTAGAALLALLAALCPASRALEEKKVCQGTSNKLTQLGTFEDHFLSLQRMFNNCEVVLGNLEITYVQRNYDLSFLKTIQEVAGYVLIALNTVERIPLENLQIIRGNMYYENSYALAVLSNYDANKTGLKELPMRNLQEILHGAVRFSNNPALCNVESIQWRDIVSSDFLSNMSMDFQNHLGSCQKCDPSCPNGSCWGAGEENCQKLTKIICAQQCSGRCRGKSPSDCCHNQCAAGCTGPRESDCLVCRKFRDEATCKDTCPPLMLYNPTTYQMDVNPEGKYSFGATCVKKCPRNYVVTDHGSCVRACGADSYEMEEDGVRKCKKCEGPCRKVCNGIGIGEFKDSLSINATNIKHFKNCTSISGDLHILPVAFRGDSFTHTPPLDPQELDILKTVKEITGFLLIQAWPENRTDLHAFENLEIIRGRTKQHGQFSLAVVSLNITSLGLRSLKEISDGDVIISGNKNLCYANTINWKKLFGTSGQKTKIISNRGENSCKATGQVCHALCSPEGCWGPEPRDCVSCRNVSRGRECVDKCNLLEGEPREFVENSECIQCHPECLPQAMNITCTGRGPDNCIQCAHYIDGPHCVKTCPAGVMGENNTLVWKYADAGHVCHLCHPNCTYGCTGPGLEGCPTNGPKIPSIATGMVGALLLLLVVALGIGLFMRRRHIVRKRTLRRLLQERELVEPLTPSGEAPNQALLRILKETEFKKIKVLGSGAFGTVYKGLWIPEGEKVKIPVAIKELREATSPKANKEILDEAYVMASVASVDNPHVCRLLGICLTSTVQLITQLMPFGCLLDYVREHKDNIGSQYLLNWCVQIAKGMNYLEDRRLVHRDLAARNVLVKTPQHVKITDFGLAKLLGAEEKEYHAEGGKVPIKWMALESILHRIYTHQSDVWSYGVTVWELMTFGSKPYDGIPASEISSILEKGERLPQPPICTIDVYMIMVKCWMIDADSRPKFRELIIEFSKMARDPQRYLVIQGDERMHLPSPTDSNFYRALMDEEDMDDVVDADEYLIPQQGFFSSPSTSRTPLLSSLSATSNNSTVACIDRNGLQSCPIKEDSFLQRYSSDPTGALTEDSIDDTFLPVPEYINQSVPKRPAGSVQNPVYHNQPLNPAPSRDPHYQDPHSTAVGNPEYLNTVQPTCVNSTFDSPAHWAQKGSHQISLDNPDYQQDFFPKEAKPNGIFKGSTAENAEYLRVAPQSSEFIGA
Chain of HER2 (A775_G776insYVMA) expressing Ba/F3 stable cell line (P04626 with tags, fused parts or gaps DUP772-775): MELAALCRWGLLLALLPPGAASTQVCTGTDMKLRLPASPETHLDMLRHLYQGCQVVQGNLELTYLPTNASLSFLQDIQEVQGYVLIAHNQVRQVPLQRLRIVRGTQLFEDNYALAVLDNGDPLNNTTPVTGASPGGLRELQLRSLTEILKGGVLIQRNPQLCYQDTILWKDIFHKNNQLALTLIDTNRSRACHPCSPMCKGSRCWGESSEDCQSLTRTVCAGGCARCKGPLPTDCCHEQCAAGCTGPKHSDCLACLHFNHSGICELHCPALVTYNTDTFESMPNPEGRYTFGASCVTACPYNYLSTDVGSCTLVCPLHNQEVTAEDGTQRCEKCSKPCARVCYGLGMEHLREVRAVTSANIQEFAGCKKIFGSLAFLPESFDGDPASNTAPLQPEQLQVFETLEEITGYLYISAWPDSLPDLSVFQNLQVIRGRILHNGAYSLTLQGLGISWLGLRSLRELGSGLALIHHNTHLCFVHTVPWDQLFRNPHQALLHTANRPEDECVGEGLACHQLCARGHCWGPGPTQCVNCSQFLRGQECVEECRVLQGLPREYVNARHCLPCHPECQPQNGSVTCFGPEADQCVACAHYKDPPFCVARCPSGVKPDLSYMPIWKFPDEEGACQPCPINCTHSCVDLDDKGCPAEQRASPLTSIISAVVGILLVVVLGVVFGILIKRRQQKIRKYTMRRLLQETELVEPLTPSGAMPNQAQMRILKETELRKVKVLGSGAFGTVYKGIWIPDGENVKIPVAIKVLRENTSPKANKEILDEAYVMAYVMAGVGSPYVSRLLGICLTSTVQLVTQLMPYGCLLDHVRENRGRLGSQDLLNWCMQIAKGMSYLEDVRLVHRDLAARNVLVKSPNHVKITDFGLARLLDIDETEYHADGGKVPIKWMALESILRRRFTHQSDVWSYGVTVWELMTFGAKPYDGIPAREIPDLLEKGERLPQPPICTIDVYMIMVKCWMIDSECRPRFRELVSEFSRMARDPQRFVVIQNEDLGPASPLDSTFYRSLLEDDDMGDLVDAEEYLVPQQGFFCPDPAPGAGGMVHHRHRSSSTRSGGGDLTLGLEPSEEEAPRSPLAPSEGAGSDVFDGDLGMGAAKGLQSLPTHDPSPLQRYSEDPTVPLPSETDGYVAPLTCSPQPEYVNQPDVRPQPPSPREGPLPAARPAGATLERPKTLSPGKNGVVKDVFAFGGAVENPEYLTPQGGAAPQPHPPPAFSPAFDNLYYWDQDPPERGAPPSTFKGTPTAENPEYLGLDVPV
Chain of EGFR(D770_N771insSVD) expressing Ba/F3 stable cell line (P00533 with tags, fused parts or gaps DUP768-770): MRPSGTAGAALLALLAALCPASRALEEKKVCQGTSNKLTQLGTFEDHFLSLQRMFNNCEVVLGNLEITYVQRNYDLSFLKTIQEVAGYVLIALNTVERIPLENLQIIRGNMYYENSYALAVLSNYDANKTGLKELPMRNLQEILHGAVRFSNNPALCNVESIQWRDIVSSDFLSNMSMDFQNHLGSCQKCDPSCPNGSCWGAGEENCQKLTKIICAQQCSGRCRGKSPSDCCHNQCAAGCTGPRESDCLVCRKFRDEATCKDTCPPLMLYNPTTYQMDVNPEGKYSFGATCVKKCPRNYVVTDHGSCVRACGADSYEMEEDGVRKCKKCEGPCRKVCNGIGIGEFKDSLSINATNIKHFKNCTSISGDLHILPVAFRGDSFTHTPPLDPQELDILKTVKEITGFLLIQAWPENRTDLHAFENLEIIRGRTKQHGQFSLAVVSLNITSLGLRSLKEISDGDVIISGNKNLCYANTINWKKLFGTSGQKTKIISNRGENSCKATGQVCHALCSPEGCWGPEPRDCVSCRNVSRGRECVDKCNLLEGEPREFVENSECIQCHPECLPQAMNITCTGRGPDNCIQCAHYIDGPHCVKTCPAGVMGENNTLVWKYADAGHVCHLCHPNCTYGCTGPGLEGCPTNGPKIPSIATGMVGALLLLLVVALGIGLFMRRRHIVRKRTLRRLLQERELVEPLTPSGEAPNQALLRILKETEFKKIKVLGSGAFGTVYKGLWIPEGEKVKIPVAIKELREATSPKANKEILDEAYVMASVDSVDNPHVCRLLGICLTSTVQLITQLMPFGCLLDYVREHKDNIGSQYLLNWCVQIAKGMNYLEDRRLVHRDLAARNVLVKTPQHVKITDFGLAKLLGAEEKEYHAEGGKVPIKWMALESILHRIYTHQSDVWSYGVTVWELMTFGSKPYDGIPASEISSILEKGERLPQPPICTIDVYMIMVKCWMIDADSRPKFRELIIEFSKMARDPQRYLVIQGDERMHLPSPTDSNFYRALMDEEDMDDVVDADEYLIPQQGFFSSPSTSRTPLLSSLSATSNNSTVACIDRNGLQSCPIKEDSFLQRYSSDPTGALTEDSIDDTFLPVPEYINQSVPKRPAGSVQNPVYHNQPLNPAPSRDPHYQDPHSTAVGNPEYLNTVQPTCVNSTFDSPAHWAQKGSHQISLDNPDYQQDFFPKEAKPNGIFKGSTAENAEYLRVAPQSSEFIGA

Compound | GI50 [1] [µM] | pIC50 (EGFR (T790M/L858R)) | GI50 [2] [µM] | GI50 [3] [µM] | pIC50 (BT-474 cells) | pIC50 (A431 cells) | pEC50 [4] | GI50 [5] [µM]
Cc1cc(Nc2ncc3c(n2)N(C2CCCC(NC(=O)/C=C/CN(C)C)C2)C(=O)N(Cc2ccccc2)C3)sn1 (stereo not drawn) [Compound 32, (E)-N-(3-(3-benzyl-7-((3-methylisothiazol-5-yl)amino)-2-oxo-3,4-dihydropyrimido[4,5-d]pyrimidin-1(2H)-yl)cyclohexyl)-4-(dimethylamino)but-2-enamide] | 2.91 | 7.09 | 2.88 |  |  | 5.86 | 6.75 | 
C=CC(=O)NC1CCCC(N2C(=O)N(Cc3ccccc3)Cc3cnc(Nc4cn(C)nc4Cl)nc32)C1 (stereo not drawn) [Compound 40, N-(3-(3-benzyl-7-((3-chloro-1-methyl-1H-pyrazol-4-yl)amino)-2-oxo-3,4-dihydropyrimido[4,5-d]pyrimidin-1(2H)-yl)cyclohexyl)acrylamide] | 1.7 | 7.01 | 1.87 |  |  | ≤ 5.00 | 6.49 | 
CN(C)C/C=C/C(=O)Nc1cccc(N2C(=O)N(Cc3ccccc3)Cc3cnc(Nc4ccc5c(cnn5C)c4)nc32)c1 [Compound 43, (E)-N-(3-(3-benzyl-7-((1-methyl-1H-indazol-5-yl)amino)-2-oxo-3,4-dihydropyrimido[4,5-d]pyrimidin-1(2H)-yl)phenyl)-4-(dimethylamino)but-2-enamide] | 0.103 | 8.42 | 0.108 |  |  | 6.20 | 8.20 | 
CN(C)C/C=C/C(=O)Nc1cccc(N2C(=O)N(Cc3ccccc3)Cc3cnc(Nc4ccc5c(c4)cc(C#N)n5C)nc32)c1 [Compound 44, (E)-N-(3-(3-benzyl-7-((2-cyano-1-methyl-1H-indol-5-yl)amino)-2-oxo-3,4-dihydropyrimido[4,5-d]pyrimidin-1(2H)-yl)phenyl)-4-(dimethylamino)but-2-enamide] | 0.123 | 8.05 | 0.106 |  |  | 7.25 | 7.42 | 
CN(C)C/C=C/C(=O)Nc1cccc(N2C(=O)N(Cc3ccccc3)Cc3cnc(Nc4ccc5cnn(C)c5c4)nc32)c1 [Compound 45, (E)-N-(3-(3-benzyl-7-((1-methyl-1H-indazol-6-yl)amino)-2-oxo-3,4-dihydropyrimido[4,5-d]pyrimidin-1(2H)-yl)phenyl)-4-(dimethylamino)but-2-enamide] | 0.352 | 7.96 | 0.35 |  |  | 5.95 | 7.33 | 
C=CS(=O)(=O)Nc1cccc(N2C(=O)N(Cc3ccccc3)Cc3cnc(Nc4cnn(C)c4)nc32)c1 [Compound 47, N-(3-(3-benzyl-7-((1-methyl-1H-pyrazol-4-yl)amino)-2-oxo-3,4-dihydropyrimido[4,5-d]pyrimidin-1(2H)-yl)phenyl)ethenesulfonamide] | 2.26 | 9.05 | ≥ 10 |  |  | ≤ 5.00 | 6.09 | 
Cc1csc(Nc2ncc3c(n2)N(c2cccc(NC(=O)/C=C/CN(C)C)c2)C(=O)N(Cc2ccccc2)C3)n1 [Compound 48, (E)-N-(3-(3-benzyl-7-((4-methylthiazol-2-yl)amino)-2-oxo-3,4-dihydropyrimido[4,5-d]pyrimidin-1(2H)-yl)phenyl)-4-(dimethylamino)but-2-enamide] | 0.456 | 8.46 | 0.361 |  |  | 6.83 | 6.88 | 
CN(C)C/C=C/C(=O)Nc1cccc(N2C(=O)N(Cc3ccccc3)Cc3cnc(Nc4cnn(C)c4)nc32)c1 [Compound 49, (E)-N-(3-(3-benzyl-7-((1-methyl-1H-pyrazol-4-yl)amino)-2-oxo-3,4-dihydropyrimido[4,5-d]pyrimidin-1(2H)-yl)phenyl)-4-(dimethylamino)but-2-enamide] | 0.351 | 9.22 | 0.476 | 0.178 |  | ≤ 5.00 | 8.68 | 
Cn1cc(Nc2ncc3c(n2)N(c2cccc(NC(=O)/C=C/Cl)c2)C(=O)N(Cc2ccccc2)C3)cn1 [Compound 50, (E)-N-(3-(3-benzyl-7-((1-methyl-1H-pyrazol-4-yl)amino)-2-oxo-3,4-dihydropyrimido[4,5-d]pyrimidin-1(2H)-yl)phenyl)-3-chloroacrylamide] | 1.35 | 9.40 | 8.72 |  |  | 5.27 | 5.38 | 

Now from value to compound:

GI50 [1] [µM] | pIC50 (EGFR (T790M/L858R)) | GI50 [2] [µM] | GI50 [3] [µM] | pIC50 (BT-474 cells) | pIC50 (A431 cells) | pEC50 [4] | GI50 [5] [µM] | Compound
0.014 | 9.40 | 0.004 | 0.0099 | 8.11 | 7.19 | 8.17 | < 0.0005 | C=CC(=O)Nc1cccc(N2C(=O)N(Cc3ccccc3)Cc3cnc(Nc4cnn(C)c4)nc32)c1 [Compound 1, N-(3-(3-benzyl-7-((1-methyl-1H-pyrazol-4-yl)amino)-2-oxo-3,4-dihydropyrimido[4,5-d]pyrimidin-1(2H)-yl)phenyl)acrylamide]
0.009 | 9.00 | 0.009 | 0.011 |  | 5.72 | 8.09 |  | C=CC(=O)Nc1cccc(N2C(=O)N(Cc3ccccc3)Cc3cnc(Nc4cn(CC(F)(F)F)nc4C)nc32)c1 [Compound 6, N-(3-(3-benzyl-7-((3-methyl-1-(2,2,2-trifluoroethyl)-1H-pyrazol-4-yl)amino)-2-oxo-3,4-dihydropyrimido[4,5-d]pyrimidin-1(2H)-yl)phenyl)acrylamide]
0.103 | 8.40 | 0.114 | 0.038 |  | 5.16 | 7.75 |  | CC(C)n1cc(Nc2ncc3c(n2)N(c2cccc(NC(=O)/C=C/CN(C)C)c2)C(=O)N(Cc2ccccc2)C3)cn1 [Compound 9, (E)-N-(3-(3-benzyl-7-((1-isopropyl-1H-pyrazol-4-yl)amino)-2-oxo-3,4-dihydropyrimido[4,5-d]pyrimidin-1(2H)-yl)phenyl)-4-(dimethylamino)but-2-enamide]
0.01 | 8.70 | 0.006 | 0.023 |  | 7.11 | 8.74 |  | C=CC(=O)Nc1cccc(N2C(=O)N(Cc3ccccc3)Cc3cnc(Nc4cnn(CCOC)c4)nc32)c1 [Compound 15, N-(3-(3-benzyl-7-((1-(2-methoxyethyl)-1H-pyrazol-4-yl)amino)-2-oxo-3,4-dihydropyrimido[4,5-d]pyrimidin-1(2H)-yl)phenyl)acrylamide]
0.012 | 8.11 | 0.055 | 0.154 |  | 5.66 | 7.10 |  | CN(C)C/C=C/C(=O)Nc1cccc(N2C(=O)N(c3ccccc3)Cc3cnc(Nc4cn(C)nc4Cl)nc32)c1 [Compound 35, (E)-N-(3-(7-((3-chloro-1-methyl-1H-pyrazol-4-yl)amino)-2-oxo-3-phenyl-3,4-dihydropyrimido[4,5-d]pyrimidin-1(2H)-yl)phenyl)-4-(dimethylamino)but-2-enamide]
0.014 | 8.59 | 0.016 | 0.067 |  | 5.77 | 8.43 |  | C=CC(=O)Nc1cccc(N2C(=O)N(Cc3ccccc3)Cc3cnc(Nc4ccc(N5CCOCC5)nc4)nc32)c1 [Compound 46, N-(3-(3-benzyl-7-((6-morpholinopyridin-3-yl)amino)-2-oxo-3,4-dihydropyrimido[4,5-d]pyrimidin-1(2H)-yl)phenyl)acrylamide]
